Patent US20230278954A1, “BRANCHED LIPID COMPOUDS” (priority 2020, published 2023)

Assays:
[1] = Stability IV: accelerated storage stability over 28 days, UHPLC; type: physicochemical; conditions: 40° C./75% RH
Procedure: Each compound was formulated in 0.9% w/w saline with addition of 0.1% w/w EDTA at about pH 5. The formulations were stored in the dark under accelerated conditions (40° C./75% RH) and reference formulations were stored at -80° C. At days 0, 9 and 28, samples were analysed by UHPLC and pH was measured.
Approximately 1.5 mg of each compound was weighed into glass HPLC vials and 1.5 mL of saline/EDTA formulation adjusted to pH 5.0 was added. The vials were vortex mixed then warmed under running hot water until full dissolution was observed.
4 × 100 uL aliquots of each solution were transferred to Agilent polypropylene 200 µL HPLC vials for storage under accelerated and reference conditions (two aliquots at each condition). These vials were removed at each time point for HPLC analysis. The frozen reference solutions at Day 9 and Day 28 were gently warmed under running hot water followed by vortex mixing for ~ 10 sec and sonication for 10 min to encourage complete dissolution. […]
Compounds B4 and B12 were analysed according to Gradient 2: […]
UHPLC results were analysed in a similarly to that described in Example 8. […]
Percentage recovery of main peak area is calculated according to the following equation (1): […]

[2] = biological target: T1, human TLR2 (Homo sapiens, UniProt O60603); assay: Activation of human TLR2 IV: HEK-BLUE-hTLR2 assay; type: cell-based; conditions: HEK-BLUE-hTLR2 cells, FIG. 4
T1 construct: expressed in transfected cells; host or cells: HEK-Blue hTLR2 cells
Procedure: HEK-BLUE-hTLR2 cells are designed for studying the stimulation of human TLR2 (hTLR2) by monitoring the activation of NF-kB. HEK-BLUE-hTLR2 cells are obtained by co-transfection of the hTLR2 and SEAP (secreted embryonic alkaline phosphatase) reporter genes into HEK293 cells. Stimulation with a TLR2 ligand activates NF-kB which induces the production of SEAP. HEK-BLUE-hTLR2 cells were purchased from InvivoGen (San Diego, CA, USA). […] xii) Add immediately […] of the cell suspension per well of the plate which contains the solution of the compounds. The plate is then returned to the incubator at 37° C. for 16 hr and was read at 620 nm by using an ELISA reader.

[3] = Stability III: accelerated aging at 40° C., 3 or 6 weeks, HPLC recovery; type: physicochemical
Procedure: Recovery of the target compound was assessed by HPLC, and the values as a percentage of the reference sample are reported in Table 14 and in FIG. 5.

T1 sequence (O60603 21-784): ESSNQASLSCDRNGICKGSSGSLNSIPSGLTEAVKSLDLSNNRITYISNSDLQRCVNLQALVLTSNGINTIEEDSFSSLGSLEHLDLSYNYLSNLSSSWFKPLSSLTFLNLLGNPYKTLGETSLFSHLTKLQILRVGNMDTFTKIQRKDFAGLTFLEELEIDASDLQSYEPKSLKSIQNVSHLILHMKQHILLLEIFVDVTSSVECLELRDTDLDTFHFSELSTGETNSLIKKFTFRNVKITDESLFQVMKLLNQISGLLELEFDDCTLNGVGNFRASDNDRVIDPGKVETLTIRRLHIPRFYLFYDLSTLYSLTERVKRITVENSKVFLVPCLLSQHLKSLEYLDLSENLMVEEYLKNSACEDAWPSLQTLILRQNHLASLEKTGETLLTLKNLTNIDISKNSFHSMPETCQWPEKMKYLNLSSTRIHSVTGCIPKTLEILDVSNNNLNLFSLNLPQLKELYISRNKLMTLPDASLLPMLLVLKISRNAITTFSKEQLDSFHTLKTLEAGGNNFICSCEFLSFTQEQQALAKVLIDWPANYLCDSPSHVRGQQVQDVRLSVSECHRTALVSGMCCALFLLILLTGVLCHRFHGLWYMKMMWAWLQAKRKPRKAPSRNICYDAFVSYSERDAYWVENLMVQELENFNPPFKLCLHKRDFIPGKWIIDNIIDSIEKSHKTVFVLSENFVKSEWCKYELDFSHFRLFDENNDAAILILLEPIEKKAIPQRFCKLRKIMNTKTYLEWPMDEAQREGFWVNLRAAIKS
T1 sequence (Q9Y2C9 32-796 partner): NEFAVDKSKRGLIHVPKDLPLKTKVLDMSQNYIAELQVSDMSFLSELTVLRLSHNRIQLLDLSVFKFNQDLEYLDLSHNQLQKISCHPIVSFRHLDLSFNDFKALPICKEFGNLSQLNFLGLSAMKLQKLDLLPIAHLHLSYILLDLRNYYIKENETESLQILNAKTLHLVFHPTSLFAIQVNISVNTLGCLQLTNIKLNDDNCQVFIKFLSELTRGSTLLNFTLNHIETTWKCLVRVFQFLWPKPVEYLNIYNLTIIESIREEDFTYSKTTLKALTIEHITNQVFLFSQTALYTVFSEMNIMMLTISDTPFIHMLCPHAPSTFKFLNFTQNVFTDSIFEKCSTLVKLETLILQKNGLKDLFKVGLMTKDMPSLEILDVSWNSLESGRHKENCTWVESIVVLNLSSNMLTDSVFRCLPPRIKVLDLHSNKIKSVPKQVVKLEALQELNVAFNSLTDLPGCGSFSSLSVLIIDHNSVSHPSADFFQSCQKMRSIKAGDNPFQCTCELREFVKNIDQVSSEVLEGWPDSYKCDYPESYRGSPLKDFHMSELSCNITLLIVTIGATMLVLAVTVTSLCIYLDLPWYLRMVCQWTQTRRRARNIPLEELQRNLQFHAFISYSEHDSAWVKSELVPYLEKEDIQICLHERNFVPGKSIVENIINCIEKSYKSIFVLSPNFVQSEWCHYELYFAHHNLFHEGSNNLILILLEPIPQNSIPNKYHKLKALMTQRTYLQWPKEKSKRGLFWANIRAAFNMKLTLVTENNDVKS

## CCCCCCCCCCCCCCC(C)C(=O)OC[C@H](CSC[C@H](N)C(=O)N[C@@H](CO)C(=O)NCCOCCOCCOCCOCCOCCOCCOCCOCCOCCOCCOCCOCCOCCOCCOCCOCCOCCOCCOCCOCCOCCOCCOCCOCCOCCOCCOCCOCCC(=O)NCC(N)=O)OC(=O)C(C)CCCCCCCCCCCCCC (stereo partly shown) [Compound B4]
[1]
  storage stability under accelerated conditions (in words): most stable compounds

## CCCCCCCCCCCCCCC(C)C(=O)OCC[C@H](CSC[C@H](N)C(=O)N[C@@H](CO)C(=O)NCCOCCOCCOCCOCCOCCOCCOCCOCCOCCOCCOCCOCCOCCOCCOCCOCCOCCOCCOCCOCCOCCOCCOCCOCCOCCOCCOCCOCCC(=O)NCC(N)=O)OC(=O)C(C)CCCCCCCCCCCCCC (stereo partly shown) [Compound B12]
[1]
  storage stability under accelerated conditions (in words): most stable compounds
[2]
  activity at TLR2 (in words): significant activity
[3]
  stability under accelerated storage conditions (in words): excellent stabilities
